Laboratory results as given in ChEMBL document CHEMBL1142214, “Synergistic interaction between phenothiazines and antimicrobial agents against Burkholderia pseudomallei” (2007).
≈ marks a conversion by molar mass, not a printed value.

Legend:
Assay type in all cases: functional
[1] = test system: Burkholderia pseudomallei; assay: Antimicrobial activity against Burkholderia pseudomallei KHW in presence of 15.6 uM omeprazole
[2] = test system: Burkholderia pseudomallei; assay: Antimicrobial activity against Burkholderia pseudomallei KHW in presence of 31.3 uM prochlorperazine
[3] = test system: Burkholderia pseudomallei; assay: Antimicrobial activity against Burkholderia pseudomallei KHW in presence of 15.6 uM prochlorperazine
[4] = test system: Burkholderia pseudomallei; assay: Antimicrobial activity against Burkholderia pseudomallei KHW in presence of 7.8 uM prochlorperazine
[5] = test system: Burkholderia pseudomallei; assay: Antimicrobial activity against Burkholderia pseudomallei KHW in presence of 3.9 uM prochlorperazine
[6] = test system: Burkholderia pseudomallei; assay: Antimicrobial activity against Burkholderia pseudomallei KHW in presence of 1000 uM promazine
[7] = test system: Burkholderia pseudomallei; assay: Antimicrobial activity against Burkholderia pseudomallei KHW in presence of 125 uM promazine
[8] = test system: Burkholderia pseudomallei; assay: Antimicrobial activity against Burkholderia pseudomallei KHW in presence of 62.5 uM promazine
[9] = test system: Burkholderia pseudomallei; assay: Antimicrobial activity against Burkholderia pseudomallei KHW in presence of 31.3 uM promazine
[10] = test system: Burkholderia pseudomallei; assay: Antimicrobial activity against Burkholderia pseudomallei KHW in presence of 15.6 uM promazine
[11] = test system: Burkholderia pseudomallei; assay: Antimicrobial activity against Burkholderia pseudomallei KHW in presence of 7.8 uM promazine
[12] = test system: Burkholderia pseudomallei; assay: Antimicrobial activity against Burkholderia pseudomallei KHW in presence of 3.9 uM promazine
[13] = test system: Burkholderia pseudomallei; assay: Antimicrobial activity against Burkholderia pseudomallei KHW in presence of 1000 uM omeprazole
[14] = test system: Burkholderia pseudomallei; assay: Antimicrobial activity against Burkholderia pseudomallei KHW in presence of 125 uM omeprazole
[15] = test system: Burkholderia pseudomallei; assay: Antimicrobial activity against Burkholderia pseudomallei KHW in presence of 62.5 uM omeprazole
[16] = test system: Burkholderia pseudomallei; assay: Antimicrobial activity against Burkholderia pseudomallei KHW in presence of 31.3 uM omeprazole
[17] = test system: Burkholderia pseudomallei; assay: Antimicrobial activity against Burkholderia pseudomallei KHW in presence of 7.8 uM omeprazole
[18] = test system: Burkholderia pseudomallei; assay: Antimicrobial activity against Burkholderia pseudomallei KHW in presence of 3.9 uM omeprazole
[19] = test system: Burkholderia pseudomallei; assay: Antimicrobial activity against Burkholderia pseudomallei KHW in presence of 1000 uM chlorpromazine
[20] = test system: Burkholderia pseudomallei; assay: Antimicrobial activity against Burkholderia pseudomallei KHW
[21] = test system: Burkholderia pseudomallei; assay: Antimicrobial activity against Burkholderia pseudomallei KHW in presence of 1000 uM prochlorperazine
[22] = test system: Burkholderia pseudomallei; assay: Antimicrobial activity against Burkholderia pseudomallei KHW in presence of 500 uM prochlorperazine
[23] = test system: Burkholderia pseudomallei; assay: Antimicrobial activity against Burkholderia pseudomallei KHW in presence of 250 uM prochlorperazine
[24] = test system: Burkholderia pseudomallei; assay: Antimicrobial activity against Burkholderia pseudomallei KHW in presence of 125 uM prochlorperazine
[25] = test system: Burkholderia pseudomallei; assay: Antimicrobial activity against Burkholderia pseudomallei KHW in presence of 62.5 uM prochlorperazine
[26] = test system: Burkholderia pseudomallei; assay: Antimicrobial activity against Burkholderia pseudomallei KHW in presence of 500 uM chlorpromazine
[27] = test system: Burkholderia pseudomallei; assay: Antimicrobial activity against Burkholderia pseudomallei KHW in presence of 250 uM chlorpromazine
[28] = test system: Burkholderia pseudomallei; assay: Antimicrobial activity against Burkholderia pseudomallei KHW in presence of 125 uM chlorpromazine
[29] = test system: Burkholderia pseudomallei; assay: Antimicrobial activity against Burkholderia pseudomallei KHW in presence of 62.5 uM chlorpromazine
[30] = test system: Burkholderia pseudomallei; assay: Antimicrobial activity against Burkholderia pseudomallei KHW in presence of 31.3 uM chlorpromazine
[31] = test system: Burkholderia pseudomallei; assay: Antimicrobial activity against Burkholderia pseudomallei KHW in presence of 15.6 uM chlorpromazine
[32] = test system: Burkholderia pseudomallei; assay: Antimicrobial activity against Burkholderia pseudomallei KHW in presence of 7.8 uM chlorpromazine
[33] = test system: Burkholderia pseudomallei; assay: Antimicrobial activity against Burkholderia pseudomallei KHW in presence of 3.9 uM chlorpromazine
[34] = test system: Burkholderia pseudomallei; assay: Antimicrobial activity against Burkholderia pseudomallei KHW in presence of 250 uM promazine
[35] = test system: Burkholderia pseudomallei; assay: Antimicrobial activity against Burkholderia pseudomallei KHW in presence of 500 uM omeprazole
[36] = test system: Burkholderia pseudomallei; assay: Antimicrobial activity against Burkholderia pseudomallei KHW in presence of 250 uM omeprazole
[37] = test system: Burkholderia pseudomallei; assay: Antimicrobial activity against Burkholderia pseudomallei KHW in presence of 500 uM promazine

SMILES | MIC [1] [µg/mL] | MIC [2] [µg/mL] | MIC [3] [µg/mL] | MIC [4] [µg/mL] | MIC [5] [µg/mL] | MIC [6] [µg/mL] | MIC [7] [µg/mL] | MIC [8] [µg/mL] | MIC [9] [µg/mL] | MIC [10] [µg/mL] | MIC [11] [µg/mL] | MIC [12] [µg/mL] | MIC [14] [µg/mL] | MIC [15] [µg/mL] | MIC [16] [µg/mL] | MIC [17] [µg/mL] | MIC [18] [µg/mL] | MIC [19] [µg/mL] | MIC [20] [µg/mL] | MIC [21] [µg/mL] | further results
CN[C@@H]1[C@H](O)[C@H](NC)[C@H]2O[C@@]3(O)C(=O)C[C@@H](C)O[C@H]3O[C@@H]2[C@H]1O [SPECTINOMYCIN] | 256 | 256 | 256 | 256 | 256 | < 0.25 | 256 | 256 | 256 | 256 | 256 | 256 | 256 | 256 | 256 | 256 | 256 | < 0.25 | 256 (≈ 770 µM) | < 0.25 | MIC [13]: 32 µg/mL; MIC [22]: < 0.25 µg/mL; MIC [23]: 32 µg/mL; MIC [24]: 32 µg/mL; MIC [25]: 128 µg/mL; MIC [26]: 32 µg/mL; MIC [27]: 128 µg/mL; MIC [28]: 256 µg/mL; MIC [29]: 256 µg/mL; MIC [30]: 256 µg/mL; MIC [31]: 256 µg/mL; MIC [32]: 256 µg/mL; MIC [33]: 256 µg/mL
C[C@H]1COc2c(N3CCN(C)CC3)c(F)cc3c(=O)c(C(=O)O)cn1c23.C[C@H]1COc2c(N3CCN(C)CC3)c(F)cc3c(=O)c(C(=O)O)cn1c23.O [LEVOFLOXACIN] | 2 | 2 | 2 | 2 | 2 | < 0.25 | 2 | 2 | 2 | 2 | 2 | 2 | 2 | 2 | 2 | 2 | 2 | < 0.25 | 2 | < 0.25 | MIC [34]: 2 µg/mL; MIC [35]: 2 µg/mL; MIC [36]: 2 µg/mL; MIC [22]: < 0.25 µg/mL; MIC [23]: 2 µg/mL; MIC [24]: 2 µg/mL; MIC [25]: 2 µg/mL; MIC [26]: < 0.25 µg/mL; MIC [28]: 2 µg/mL; MIC [29]: 2 µg/mL; MIC [30]: 2 µg/mL; MIC [31]: 2 µg/mL; MIC [32]: 2 µg/mL; MIC [33]: 2 µg/mL
CO[C@H]1C[C@H](O[C@H]2[C@H](C)[C@@H](O[C@@H]3O[C@H](C)C[C@H](N(C)C)[C@H]3O)[C@@H](C)C[C@@]3(CO3)C(=O)[C@H](C)[C@@H](O)[C@@H](C)[C@@H](C)OC(=O)[C@@H]2C)O[C@@H](C)[C@@H]1O [OLEANDOMYCIN] | > 2000 | 512 | 512 | > 2000 | > 2000 | 0.5 | > 2000 | > 2000 | > 2000 | > 2000 | > 2000 | > 2000 | > 2000 | > 2000 | > 2000 | > 2000 | > 2000 | < 0.25 | > 2000 | 64 | MIC [37]: 256 µg/mL; MIC [34]: > 2000 µg/mL; MIC [13]: < 0.25 µg/mL; MIC [35]: > 2000 µg/mL; MIC [36]: > 2000 µg/mL; MIC [22]: 64 µg/mL; MIC [23]: 128 µg/mL; MIC [24]: 256 µg/mL; MIC [25]: 256 µg/mL; MIC [26]: 128 µg/mL; MIC [27]: 256 µg/mL; MIC [28]: 512 µg/mL; MIC [29]: 1020 µg/mL; MIC [30]: > 2000 µg/mL; MIC [31]: > 2000 µg/mL; MIC [32]: > 2000 µg/mL; MIC [33]: > 2000 µg/mL
